Experiments:
Assay type in all cases: in vivo
[1] = tested on: winter barley (Hordeum vulgare); assay: Test B postemergence plant response
Method in brief: (§1)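 Visual ratings from 0 (no effect) to 100 (complete control), made against controls 13–15 days after treatment, kept in a greenhouse. Compounds were applied postemergence to potted plants at the 1- to 4-leaf stage (2–18 cm).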

[2] = tested on: canarygrass (Phalaris minor); assay: Test B postemergence plant response
Method in brief: as §1

[3] = tested on: chickweed (Stellaria media); assay: Test B postemergence plant response
Method in brief: as §1

[4] = tested on: giant foxtail (Setaria faberii); assay: Test B pre-/postemergence plant response
Method in brief: (§2)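 Seeds sown in loam–sand blend were treated preemergence, and plants at 2–18 cm (1- to 4-leaf stage) in peat-based medium were treated postemergence; compounds were formulated in non-phytotoxic solvent with surfactant. After 13–15 days in greenhouse, response was visually rated against controls, 0 (no effect) to 100 (complete control).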

soybean (Glycine max) = assay: Test B pre-/postemergence plant response
Method in brief: as §2

[5] = tested on: goosegrass (Eleusine indica); assay: Test B pre-/postemergence plant response
Method in brief: as §2

[6] = tested on: Italian ryegrass (Lolium multiflorum); assay: Test B pre-/postemergence plant response
Method in brief: as §2

[7] = tested on: pigweed (Amaranthus retroflexus); assay: Test B pre-/postemergence plant response
Method in brief: as §2

[8] = tested on: morningglory (Ipomoea coccinea); assay: Test B pre-/postemergence plant response
Method in brief: as §2

[9] = tested on: wheat (Triticum aestivum); assay: Test B pre-/postemergence plant response
Method in brief: as §2

[10] = tested on: downy bromegrass (Bromus tectorum); assay: Test B pre-/postemergence plant response
Method in brief: as §2

corn (Zea mays) = assay: Test B pre-/postemergence plant response
Method in brief: as §2

[11] = tested on: bermudagrass (Cynodon dactylon); assay: Test B pre-/postemergence plant response
Method in brief: as §2

[12] = tested on: green foxtail (Setaria viridis); assay: Test B pre-/postemergence plant response
Method in brief: as §2

[13] = tested on: velvetleaf (Abutilon theophrasti); assay: Test B pre-/postemergence plant response
Method in brief: as §2

[14] = tested on: johnsongrass (Sorghum halepense); assay: Test B pre-/postemergence plant response
Method in brief: as §2

[15] = tested on: blackgrass (Alopecurus myosuroides); assay: Test B pre-/postemergence plant response
Method in brief: as §2

[16] = tested on: ragweed (common ragweed, Ambrosia elatior); assay: Test B pre-/postemergence plant response
Method in brief: as §2

[17] = 31 g ai/ha, postemergence, scale 0 to 100, 0 is no effect, 100 is complete control
[18] = Postemergence, 62 g ai/ha, scale 0 (no effect) to 100 (complete control), 13 to 15 days
[19] = Postemergence, 125 g ai/ha, visual rating after 13 to 15 days, scale 0 (no effect) to 100 (complete control)
[20] = Postemergence, 250 g ai/ha, scale 0 to 100 (0 no effect, 100 complete control)
[21] = 250 g ai/ha, Preemergence, 0 to 100 scale
[22] = Preemergence, 31 g ai/ha, scale 0 to 100 (0 no effect, 100 complete control)
[23] = Preemergence, 62 g ai/ha, scale 0 to 100, 0 no effect, 100 complete control
[24] = Preemergence, 125 g ai/ha, scale 0 to 100, 0 no effect, 100 complete control

Cc1cccc(-n2c(-c3ccccc3)ncc(C(=O)C3=C(O)CCCC3=O)c2=O)c1F [Compound 58]
0: Plant response rating, Ryegrass, Italian [6, 17] | Plant response rating, Ryegrass, Italian [6, 18] | Plant response rating, Ryegrass, Italian [6, 22] | Plant response rating, Ryegrass, Italian [6, 23] | Plant response rating, Ryegrass, Italian [6, 24] | Plant response rating, Morningglory [8, 22] | Plant response rating, Morningglory [8, 23] | Plant response rating, Wheat [9, 17] | Plant response rating, Wheat [9, 18] | Plant response rating, Wheat [9, 19] | Plant response rating, Wheat [9, 20] | Plant response rating, Wheat [9, 22] | Plant response rating, Wheat [9, 23] | Plant response rating, Wheat [9, 24] | Plant response rating, Bromegrass, Downy [10, 21] | Plant response rating, Bromegrass, Downy [10, 22] | Plant response rating, Bromegrass, Downy [10, 23] | Plant response rating, Bromegrass, Downy [10, 24] | Plant response rating, Corn (corn (Zea mays); [17]) | Plant response rating, Corn (corn (Zea mays); [21]) | Plant response rating, Corn (corn (Zea mays); [22]) | Plant response rating, Corn (corn (Zea mays); [23]) | Plant response rating, Corn (corn (Zea mays); [24]) | Plant response rating, Foxtail, Green [12, 22] | Plant response rating, Blackgrass [15, 22] | Plant response rating, Blackgrass [15, 23]
20: Plant response rating, Foxtail, Giant [4, 23] | Plant response rating, Johnsongrass [14, 23] | Plant response rating, Blackgrass [15, 19] | Plant response rating, Ragweed [16, 22]
40: Plant response rating, Bromegrass, Downy [10, 17] | Plant response rating, Bromegrass, Downy [10, 18] | Plant response rating, Blackgrass [15, 20]
5: Plant response rating, Barley [1, 17] | Plant response rating, Barley [1, 18] | Plant response rating, Barley [1, 19] | Plant response rating, Foxtail, Green [12, 23] | Plant response rating, Blackgrass [15, 17] | Plant response rating, Blackgrass [15, 24]
30: Plant response rating, Ryegrass, Italian [6, 19] | Plant response rating, Blackgrass [15, 21]
70: Plant response rating, Chickweed [3, 17] | Plant response rating, Goosegrass [5, 17] | Plant response rating, Ryegrass, Italian [6, 20] | Plant response rating, Foxtail, Green [12, 24]
75: Plant response rating, Foxtail, Giant [4, 17] | Plant response rating, Foxtail, Giant [4, 21] | Plant response rating, Foxtail, Giant [4, 24] | Plant response rating, Goosegrass [5, 18] | Plant response rating, Foxtail, Green [12, 17] | Plant response rating, Velvetleaf [13, 17] | Plant response rating, Velvetleaf [13, 18] | Plant response rating, Velvetleaf [13, 22] | Plant response rating, Ragweed [16, 23]
55: Plant response rating, Morningglory [8, 24]
45: Plant response rating, Bromegrass, Downy [10, 19] | Plant response rating, Corn (corn (Zea mays); [18])
60: Plant response rating, Canarygrass [2, 17] | Plant response rating, Canarygrass [2, 18]
100: Plant response rating, Goosegrass [5, 21] | Plant response rating, Goosegrass [5, 24] | Plant response rating, Pigweed [7, 20] | Plant response rating, Pigweed [7, 24] | Plant response rating, Bermudagrass [11, 21] | Plant response rating, Bermudagrass [11, 20] | Plant response rating, Bermudagrass [11, 24] | Plant response rating, Foxtail, Green [12, 21] | Plant response rating, Foxtail, Green [12, 20] | Plant response rating, Johnsongrass [14, 20]
80: Plant response rating, Canarygrass [2, 19] | Plant response rating, Chickweed [3, 18] | Plant response rating, Pigweed [7, 17] | Plant response rating, Morningglory [8, 18] | Plant response rating, Corn (corn (Zea mays); [20]) | Plant response rating, Velvetleaf [13, 23] | Plant response rating, Johnsongrass [14, 24] | Plant response rating, Ragweed [16, 17]
65: Plant response rating, Morningglory [8, 17] | Plant response rating, Corn (corn (Zea mays); [19])
95: Plant response rating, Soybean (soybean (Glycine max); [19]) | Plant response rating, Soybean (soybean (Glycine max); [20]) | Plant response rating, Goosegrass [5, 22] | Plant response rating, Pigweed [7, 18] | Plant response rating, Velvetleaf [13, 20] | Plant response rating, Velvetleaf [13, 24]
90: Plant response rating, Chickweed [3, 19] | Plant response rating, Chickweed [3, 20] | Plant response rating, Foxtail, Giant [4, 19] | Plant response rating, Goosegrass [5, 20] | Plant response rating, Morningglory [8, 19] | Plant response rating, Morningglory [8, 20] | Plant response rating, Foxtail, Green [12, 18] | Plant response rating, Ragweed [16, 19]
50: Plant response rating, Bromegrass, Downy [10, 20] | Plant response rating, Johnsongrass [14, 17]
85: Plant response rating, Canarygrass [2, 20] | Plant response rating, Foxtail, Giant [4, 18] | Plant response rating, Soybean (soybean (Glycine max); [17]) | Plant response rating, Soybean (soybean (Glycine max); [18]) | Plant response rating, Soybean (soybean (Glycine max); [24]) | Plant response rating, Goosegrass [5, 19] | Plant response rating, Pigweed [7, 22] | Plant response rating, Bermudagrass [11, 17] | Plant response rating, Bermudagrass [11, 18] | Plant response rating, Velvetleaf [13, 19] | Plant response rating, Johnsongrass [14, 21] | Plant response rating, Johnsongrass [14, 18] | Plant response rating, Ragweed [16, 18] | Plant response rating, Ragweed [16, 24]
10: Plant response rating, Barley [1, 20] | Plant response rating, Foxtail, Giant [4, 22] | Plant response rating, Soybean (soybean (Glycine max); [22]) | Plant response rating, Johnsongrass [14, 22] | Plant response rating, Blackgrass [15, 18]
98: Plant response rating, Foxtail, Giant [4, 20] | Plant response rating, Goosegrass [5, 23] | Plant response rating, Pigweed [7, 19] | Plant response rating, Pigweed [7, 23] | Plant response rating, Bermudagrass [11, 19] | Plant response rating, Bermudagrass [11, 22] | Plant response rating, Bermudagrass [11, 23] | Plant response rating, Foxtail, Green [12, 19] | Plant response rating, Johnsongrass [14, 19] | Plant response rating, Ragweed [16, 20]
